Reference: patent US8367700B2, “Substituted 4-(1.2,3,4-tetrahydroisoquinolin-2-yl)-4-oxobutyric acid amide as KCNQ2/3 modulators” (Gruenenthal GmbH, priority 2008, dated 2013)

Columns and labels:
hKCNQ2/3 [1] = target: T1, hKCNQ2/3 (Homo sapiens, UniProt O43525+O43526); assay: Voltage-clamp (patch-clamp) measurements on stably transfected hKCNQ2/3 CHO-K1 cell line; assay type: cell-based; parameters: expressed in transfected cells; host or cells: CHO-K1 (stably transfected); details: 10 μM test substance at −40 mV, current increase normalised against retigabine (10 μM), read-out: Patch-clamp % Efficacy @ 10 μM (Retigabine = 100%)
T1 sequence (O43526 whole entry): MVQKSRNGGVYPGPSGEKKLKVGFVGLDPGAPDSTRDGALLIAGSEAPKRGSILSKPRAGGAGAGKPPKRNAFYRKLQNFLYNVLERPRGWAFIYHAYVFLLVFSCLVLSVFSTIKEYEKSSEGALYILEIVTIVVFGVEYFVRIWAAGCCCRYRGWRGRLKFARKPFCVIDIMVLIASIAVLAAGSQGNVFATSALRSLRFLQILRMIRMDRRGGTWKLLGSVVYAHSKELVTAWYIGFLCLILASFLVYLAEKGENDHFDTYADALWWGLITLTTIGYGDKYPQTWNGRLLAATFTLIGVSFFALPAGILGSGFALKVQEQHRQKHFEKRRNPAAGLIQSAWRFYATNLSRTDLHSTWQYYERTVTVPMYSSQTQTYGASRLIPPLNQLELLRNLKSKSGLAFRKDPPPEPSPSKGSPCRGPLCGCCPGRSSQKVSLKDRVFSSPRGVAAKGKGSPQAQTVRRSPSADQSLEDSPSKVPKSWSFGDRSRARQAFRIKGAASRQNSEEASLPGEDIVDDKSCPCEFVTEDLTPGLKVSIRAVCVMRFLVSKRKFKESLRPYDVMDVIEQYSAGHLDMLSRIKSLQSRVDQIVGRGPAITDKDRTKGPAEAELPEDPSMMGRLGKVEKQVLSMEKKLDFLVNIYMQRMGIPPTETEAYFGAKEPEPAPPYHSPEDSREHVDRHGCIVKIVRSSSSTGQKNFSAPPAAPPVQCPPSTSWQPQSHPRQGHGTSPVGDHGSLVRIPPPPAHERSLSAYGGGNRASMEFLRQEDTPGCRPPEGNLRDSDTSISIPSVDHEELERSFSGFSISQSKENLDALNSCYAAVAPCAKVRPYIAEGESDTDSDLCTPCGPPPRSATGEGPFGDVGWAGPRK
T1 sequence (O43525 whole entry): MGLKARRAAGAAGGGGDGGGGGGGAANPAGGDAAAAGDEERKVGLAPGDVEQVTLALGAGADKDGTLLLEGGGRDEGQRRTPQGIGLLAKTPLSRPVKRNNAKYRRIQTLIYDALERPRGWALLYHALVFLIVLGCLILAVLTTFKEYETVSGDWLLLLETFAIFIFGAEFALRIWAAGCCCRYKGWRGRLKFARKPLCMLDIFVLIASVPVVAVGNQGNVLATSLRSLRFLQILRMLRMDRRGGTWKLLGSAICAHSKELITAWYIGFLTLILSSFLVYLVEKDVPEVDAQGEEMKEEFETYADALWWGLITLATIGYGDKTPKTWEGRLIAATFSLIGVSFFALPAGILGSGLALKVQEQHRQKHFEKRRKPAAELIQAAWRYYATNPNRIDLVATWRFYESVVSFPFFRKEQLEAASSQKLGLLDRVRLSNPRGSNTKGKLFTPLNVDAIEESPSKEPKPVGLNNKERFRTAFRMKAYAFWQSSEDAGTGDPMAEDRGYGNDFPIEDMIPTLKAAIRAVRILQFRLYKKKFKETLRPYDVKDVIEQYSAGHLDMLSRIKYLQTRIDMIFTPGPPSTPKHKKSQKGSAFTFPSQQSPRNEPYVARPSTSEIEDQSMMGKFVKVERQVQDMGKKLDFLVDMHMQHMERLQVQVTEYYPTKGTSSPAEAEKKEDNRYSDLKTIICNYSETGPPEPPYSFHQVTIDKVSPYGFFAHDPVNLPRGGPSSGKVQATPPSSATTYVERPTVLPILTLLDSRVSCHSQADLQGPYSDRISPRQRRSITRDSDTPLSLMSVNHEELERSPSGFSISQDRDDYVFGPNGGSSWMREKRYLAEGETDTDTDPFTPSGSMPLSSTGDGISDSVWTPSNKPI
Method: Voltage-Clamp Measurements
In order to confirm a KCNQ2/3 agonistic action of the substances electrophysiologically, patch-clamp measurements (Hamill O P, Marty A, Neher E, Sakmann B, Sigworth F J: Improved patch-clamp techniques for high-resolution current recording from cells and cell-free membrane patches, Pfluger's Arch. 1981 August; 391(2):85-100) were performed in voltage-clamp mode on a stably transfected hKCNQ2/3 CHO-K1 cell line. After formation of the gigaseal the cells were first clamped at a holding potential of −60 mV. Depolarising voltage jumps up to a potential of +20 mV were then applied (increment: 20 mV, duration: 1 second) in order to confirm the functional expression of KCNQ2/3-typical currents. The substances were tested at a potential of −40 mV. First of all the current increase induced by retigabine (10 μM) at −40 mV was recorded on each cell as a positive control. After completely washing out the retigabine effect (duration: 80 s) the test substance (10 μM) was applied. The current increase induced by the test substance was normalised against the retigabine effect and stated as the relative efficacy (see below).

hKCNQ2/3 [2] = target: T1, hKCNQ2/3; assay: Fluorescence assay using a voltage-sensitive dye (fluorimetry); assay type: cell-based; parameters: expressed in transfected cells; host or cells: CHO-K1; details: CHO-K1 cells expressing KCNQ2/3; for Emax at 1 µM / Emax at 10 µM: relative to retigabine = 100%; for Emax at 1 µM: read-out: Fluorimetry % Efficacy @ 1 μM (Retigabine = 100%); for Emax at 10 µM: read-out: Fluorimetry % Efficacy @ 10 μM (Retigabine = 100%)
Method: Pharmacological Experiments Fluorescence Assay Using a Voltage-Sensitive Dye
Human CHO-K1 cells expressing KCNQ2/3 channels are cultivated adherently at 37° C., 5% CO2 and 95% humidity in cell culture bottles (e.g. 80 cm^2 TC flasks, Nunc) with DMEM-high glucose (Sigma Aldrich, D7777) including 10% FCS (PAN Biotech, e.g. 3302-P270521) or alternatively MEM Alpha Medium (1×, liquid, Invitrogen, #22571), 10% foetal calf serum (FCS) (Invitrogen, #10270-106, heat-inactivated) and the necessary selection antibiotics.
Before being sown out for the measurements, the cells are washed with a 1×DPBS buffer without Ca^2+/Mg^2+ (e.g. Invitrogen, #14190-094) and detached from the bottom of the culture vessel by means of Accutase (PAA Laboratories, #L11-007) (incubation with Accutase for 15 min at 37° C.). The cell count then present is determined using a CASY™ cell counter (TCC model, Scharfe System) in order subsequently to apply 20,000 to 30,000 cells/well/100 μl of the described nutrient medium, depending on density optimisation for the individual cell line, to 96-well measuring plates of the Corning™ CeIIBIND™ type (flat clear-bottom black polystyrene microplates, #3340).
Incubation is then carried out for one hour at room temperature, without gassing or adjusting the humidity, followed by incubation for 24 hours at 37° C., 5% CO2 and 95% humidity.
The voltage-sensitive fluorescent dye from the Membrane Potential Assay Kit (Red™ bulk format part R8123 for FLIPR, MDS Analytical Technologies™) is prepared by dissolving the contents of a vessel of Membrane Potential Assay Kit Red Component A in 200 ml of extracellular buffer (ES buffer, 120 mM NaCl, 1 mM KCl, 10 mM HEPES, 2 mM CaCl2, 2 mM MgCl2, 10 mM glucose; pH 7.4). After removal of the nutrient medium, the cells are washed with 200 μl of ES buffer, then covered with a layer of 100 μl of the dye solution prepared above and incubated for 45 min at room temperature with exclusion of light.
The fluorescence measurements are carried out with a BMG Labtech FLUOstar™ BMG Labtech NOVOstar™ or BMG Labtech POLARstar™ instrument (525 nm excitation, 560 nm emission, bottom-read mode). After incubation of the dye, 50 μl of the substances to be tested in the desired concentrations, or 50 μl of ES buffer for control purposes, are introduced into separate cavities of the measuring plate and incubated for 30 min at room temperature whilst being shielded from light. The fluorescence intensity of the dye is then measured for 5 min and the fluorescence value F1 of each well is thus determined at a given, constant time. 15 μl of a […] KCl solution ([…]) are then added to each well. The change in fluorescence is subsequently measured until all relevant measured values have been obtained (mainly 5-30 min). At a given time after KCl application, a fluorescence value F2 is determined, in this case at the time of the fluorescence peak.
For calculation, the fluorescence intensity F2 is compared with the fluorescence intensity F1, and the agonistic activity of the target compound on the potassium channel is determined therefrom. F2 and F1 are calculated as follows: […]
In order to determine whether a substance has an agonistic activity,
[formula] for example, can be compared with
[formula] of control cells.
[formula] is determined by adding to the reaction batch only the buffer solution instead of the substance to be tested, determining the value F1K of the fluorescence intensity, adding the potassium ions as described above and measuring a value F2K of the fluorescence intensity. Then F2K and F1K are calculated as follows: […]
A substance has an agonistic activity on the potassium channel if
[formula] is greater than
Independently of the comparison of
[formula] it is also possible to conclude that a target compound has an agonistic activity if an increase in
[formula] is to be observed as the dosage of the target compound increases. […]

rat = assay: Formalin test in the rat; assay type: in vivo, Sprague Dawley rats; details: phase II (21-27 min after formalin administration)
Method: The formalin test (Dubuisson, D. and Dennis, S. G., 1977, Pain, 4, 161-174) is a model for acute and chronic pain. In the tests described here, the chronic pain component (phase II of the formalin test; time interval 21-27 min after formalin administration) was analysed.
A single formalin injection into the dorsal side of one rear paw was used to induce a biphase nociceptive response in experimental animals allowed to move freely, and the response was recorded by observation of three clearly distinguishable behaviour patterns.
Formalin is administered subcutaneously in a volume of 50 μl and a concentration of 5% into the dorsal side of the right rear paw of each animal. The vehicle and the substances to be tested are administered intravenously 5 minutes before or orally 30 minutes before the formalin injection.
The specific behavioural changes, such as lifting and shaking the paw, shifting of weight by the animal and biting and licking responses, are observed and recorded continuously for 60 minutes after formalin administration. The behavioural changes are weighted differently (score 0-3) and a pain rate (PR) calculated using the formula below: PR=[(T0×0)+(T1×1)+(T2×2)+(T3×3)/180.
Sprague Dawley rats (Janvier, Belgium) are used as the phylum. The weight of the animals is between 180 and 200 g. The group size was n=10.

EC50 (hKCNQ2/3 [2]) [µM]	Emax at 1 µM (hKCNQ2/3 [2]) [%]	SMILES	also measured
10.4	–	CC1c2ccccc2CCN1C(=O)CCC(=O)NCc1cccc(C(F)(F)F)c1 (stereo not drawn) [Example compound 2, 4-(1-Methyl-3,4-dihydro-1H-isoquinolin-2-yl)-4-oxo-N-[[3-(trifluoromethyl)phenyl]methyl]butyric acid amide]	Emax at 10 µM (hKCNQ2/3 [1]): 17%
1.05	76	O=C(CCC(=O)N1CCc2ccccc2C1c1cccs1)NCc1cccc(C(F)(F)F)c1 (stereo not drawn) [Example compound 3, 4-Oxo-4-(1-thien-2-yl-3,4-dihydroisoquinolin-2(1H)-yl)-N-(3-(trifluoromethyl)benzyl)butyric acid amide]	Emax at 10 µM (hKCNQ2/3 [2]): 134%
–	11	O=C(CCC(=O)N1CCc2ccccc2C1c1ccncc1)NCc1cccc(C(F)(F)F)c1 (stereo not drawn) [Example compound 4, 4-Oxo-4-[1-(4-pyridyl)-3,4-dihydro-1H-isoquinolin-2-yl]-N-[[3-(trifluoromethyl)phenyl]methyl]butyric acid amide]	Emax at 10 µM (hKCNQ2/3 [2]): 35%
0.083	69	O=C(CCC(=O)N1CCc2ccc(F)cc2C1c1ccccc1)NCc1cccc(C(F)(F)F)c1 (stereo not drawn) [Example compound 5, 4-(7-Fluoro-1-phenyl-3,4-dihydroisoquinolin-2(1H)-yl)-4-oxo-N-(3-(trifluoromethyl)benzyl)butyric acid amide]	–
0.075	73	O=C(CCC(=O)N1CCc2c(F)cccc2C1c1ccccc1)NCc1cccc(C(F)(F)F)c1 (stereo not drawn) [Example compound 6, 4-(5-Fluoro-1-phenyl-3,4-dihydro-1H-isoquinolin-2-yl)-4-oxo-N-[[3-(trifluoromethyl)phenyl]methyl]butyric acid amide]	–
–	30	COc1ccc2c(c1)C(c1ccccc1)N(C(=O)CCC(=O)NCc1cccc(C(F)(F)F)c1)CC2 (stereo not drawn) [Example compound 11, 4-(7-Methoxy-1-phenyl-3,4-dihydro-1H-isoquinolin-2-yl)-4-oxo-N-[[3-(trifluoromethyl)phenyl]methyl]butyric acid amide]	–
–	-7	COc1cccc2c1CCN(C(=O)CCC(=O)NCc1cccc(C(F)(F)F)c1)C2c1ccccc1 (stereo not drawn) [Example compound 12, 4-(5-Methoxy-1-phenyl-3,4-dihydro-1H-isoquinolin-2-yl)-4-oxo-N-[[3-(trifluoromethyl)phenyl]methyl]butyric acid amide]	–
0.215	112	Cc1ccccc1C1c2ccccc2CCN1C(=O)CCC(=O)NCc1cccc(C(F)(F)F)c1 (stereo not drawn) [Example compound 67, 4-Oxo-4-(1-(2-tolyl)-3,4-dihydro-1H-isoquinolin-2-yl)-N-[[3-(trifluoromethyl)-phenyl]methyl]butyric acid amide]	–

Continued, compound first:

SMILES	EC50 (hKCNQ2/3 [2]) [µM]	Emax at 1 µM (hKCNQ2/3 [2]) [%]	also measured
O=C(CCC(=O)N1CCc2ccccc2C1c1ccccc1)NCc1ccccc1C(F)(F)F (stereo not drawn) [Example compound 7, 4-Oxo-4-(1-phenyl-3,4-dihydro-1H-isoquinolin-2-yl)-N-[[2-(trifluoromethyl)phenyl]methyl]butyric acid amide]	–	12	–
O=C(CCC(=O)N1CCc2ccccc2C1c1ccccc1)NCc1ccc(C(F)(F)F)cc1 (stereo not drawn) [Example compound 8, 4-Oxo-4-(1-phenyl-3,4-dihydro-1H-isoquinolin-2-yl)-N-[[4-(trifluoromethyl)phenyl]methyl]butyric acid amide]	–	63	–
CC1CN(C(=O)CCC(=O)NCc2cccc(C(F)(F)F)c2)C(c2ccccc2)c2ccccc21 (stereo not drawn) [Example compound 9, 4-(4-Methyl-1-phenyl-3,4-dihydro-1H-isoquinolin-2-yl)-4-oxo-N-[[3-(trifluoromethyl)phenyl]methyl]butyric acid amide]	0.116	51	–
CC1(C)CN(C(=O)CCC(=O)NCc2cccc(C(F)(F)F)c2)C(c2ccccc2)c2ccccc21 (stereo not drawn) [Example compound 10, 4-(4,4-Dimethyl-1-phenyl-1,3-dihydroisoquinolin-2-yl)-4-oxo-N-[[3-(trifluoromethyl)phenyl]methyl]butyric acid amide]	0.135	45	–
CC1Cc2ccccc2C(c2ccccc2)N1C(=O)CCC(=O)NCc1cccc(C(F)(F)F)c1 (stereo not drawn) [Example compound 13, 4-(3-Methyl-1-phenyl-3,4-dihydro-1H-isoquinolin-2-yl)-4-oxo-N-[[3-(trifluoromethyl)phenyl]methyl]butyric acid amide]	–	29	–
Cc1ccccc1C1c2ccccc2CCN1C(=O)CCC(=O)NCc1ccc(C(F)(F)F)cc1 (stereo not drawn) [Example compound 68, 4-Oxo-4-(1-(2-tolyl)-3,4-dihydro-1H-isoquinolin-2-yl)-N-[[4-(trifluoromethyl)-phenyl]methyl]butyric acid amide]	0.149	56	–
Cc1ccccc1C1c2ccccc2CCN1C(=O)CCC(=O)NCc1ccccc1C(F)(F)F (stereo not drawn) [Example compound 69, 4-Oxo-4-(1-(2-tolyl)-3,4-dihydro-1H-isoquinolin-2-yl)-N-[[2-(trifluoromethyl)-phenyl]methyl]butyric acid amide]	0.158	67	–
O=C(CCC(=O)N1CCn2cccc2C1c1ccccc1)NCc1cccc(C(F)(F)F)c1 (stereo not drawn) [Example no. 2 in WO2008/046582, reference compound]	–	–	Formalin test rat i.v. @ 4.64 mg/kg % Reduction of nociceptive behaviour (rat): No effect
